# Entries after “also recorded” stand apart in the source; their conditions may differ. Read-outs that look alike come from different tables or passages of the source.
# Assays:
# [1] = system: collagen induced arthritis (CIA)
# Method: Bovine type II collagen (CII) was purified from hyaline cartilage, as described [Williams, 1992# 18]. Male DBA/1 mice (8-12 weeks old) were immunized with 100 μg of CII emulsified in complete Freund's adjuvant CFA (Difco, Detroit, Mich.) by intradermal injection at the base of the tail. From day 15 after immunization onwards, mice were examined daily for onset of CIA using two clinical parameters: paw swelling and clinical score [Williams, PNAS, Vol. 89, pages 97848]. Paw swelling was assessed by measuring the thickness of the affected hind paws with 0-10 mm callipers (Kroeplin, Schluchtern, Germany). For the clinical score, 0=normal; 1=slight swelling and erythema; 2=pronounced edema; 3=joint rigidity. Each limb was graded, resulting in a maximal clinical score of 12 per animal. The arthritis was monitored over 10 days, after which the mice were sacrificed.
# Mice injected with vehicle alone (ethanolcremophor in saline) served as controls (n=23).
# IFNγ = details: cited from earlier work
# Legionella = details: mouse, in vivo; cited from earlier work
# IL-1 = details: cited from earlier work
# [2] = system: 51Cr-labeled P815 lymphoma cell line; assay: cell mediated cytotoxicity after mixed leukocyte culture; format: cell-based, mouse
# Method: Cells harvested from MLC were tested for their cytotoxic activity against ^51Cr-labeled P815 (H-2^d)lymphoma cell line. Cytotoxic activity is given in LU/10^6cells (see Materials and Methods).
# MHC-restricted CTL were activated in MLC by co-culturing 2.5×10^6 responding spleen cells for 5 days with an equal number of irradiated (25 Gy) allogeneic splenocytes in 2 ml/well of complete DMEM in 24-well plates (Costar).
# Cytotoxic assays were performed as described previously (Leshem et al, 1999). Briefly, effector cells were serially diluted (threefold) in triplicate wells of conical-bottom microplates (Nunc) and mixed with washed ^51Cr-labeled target cells in a final 200 μl volume to make 4-6 effector target cell ratios. Microplates were centrifuged (70×g, 2 min.) and incubated for 4 h. They were then centrifuged at 200×g for 5 min. and the supernatants (150 μl) were counted in an automatic […] (LKB-Wallac, Finland). Percent of specific cytotoxic activity was calculated according to the formula: [(experimental cpm−background cpm)/(maximal cpm−background cpm)×100]. Lytic units (LU), were drawn from the cytotoxicity measured at 4-6 E:T cell ratios. One 1 LU is defined as the number of effector cells causing lysis of 30% target cells (Leshem and Brass, 1998).
# nitric oxide (NO) = details: macrophages activated by LPS and IFNγ; cited from earlier work
# [3] = system: nitric oxide (NO) generation; assay: nitric oxide (NO) generation by Thioglycollate induced macrophages, Griess reagent; format: cell-based, mouse
# TNFα release = assay: spontaneous TNF release by murine synovial cells from arthritic mice; format: cell-based, mouse (DBA/1); details: for O.D. (cytotoxicity assay for TNF) / TNF: supernatants after 24 h
# Method: DBA/1 mice which had been immunized with bovine CII in CFA, to induce CIA, as discussed above, were sacrificed at day 10 of arthritis and the knee joints were removed. Synovial cell cultures were performed as previously described. Briefly, synovial membranes were excised under a dissecting microscope and digested with collagenase A (1 mg/ml) (Boehringer-Mannheim) and DNAase type IV (0.15 mg/ml) (Sigma, Dorset, UK) at 37° C. for 20 minutes, in. the presence of polymyxin B (33 μg/ml) (Sigma). […] Supernatants were collected after 24 h. and stored at −20° C. until measured for cytokines.
# Well cytotoxicity assay was used.
# [4] = system: collagen induced arthritis (CIA); assay: acute CIA model, oral feeding of CBD; format: in vivo, mouse; details: 10 days
# Method: The drug was administered by oral gavage. Control mice were fed vehicle (olive oil) along, as described in Materials and Methods. Results are expressed as a mean+/−SEM.
# The doses used were 10 mg/kag, 25 mg/kg and 50 mg/kg (n=6 per group), corresponding to 2, 5, and 10 mg/kg i.p. respectively. Control mice were fed olive oil (n=6).
# [5] = system: Thioglycollate-elicited granulocytes; assay: viability of granulocytes in the ROI test; format: cell-based, mouse (C57BL/6)
# Method: Thioglycollate-elicited granulocytes were harvested from C57BL/6 mice by sterile lavage with PBS 18 hrs. after intraperitoneal injection with 1.5 ml thioglycollate medium (1.5 ml in 3% solution). The cells were washed and resuspended at 5×10^5 cells/ml in Hanks' buffered salt solution without phenol red, and distributed at 0.5 ml/tube into luminometer plastic tubes. […] The tube was inserted into luminometer (Biolumate LB 95 oot Berhold Wildbad Germany) which had been prewarmed to 37° C. The granulocyte luminol-enhanced chemiluminescence response to zymosan was considered as the positive control.
# [6] = LPS 1 μg/ml + IFNγ 10 U/ml, CBD 2 μg/ml
# [7] = LPS 1 μg/ml + IFNγ 10 U/ml, CBD 4 (μg/ml)
# [8] = LPS 1 μg/ml + IFNγ 10 U/ml, CBD 6 (μg/ml)
# [9] = LPS 1 μg/ml + IFNγ 10 U/ml, CBD 8 (μg/ml)
compound,measurement,setting,value
"C=C(C)[C@@H]1CCC(C)=C[C@H]1c1c(O)cc(CCCCC)cc1O [CBD, Cannabidiol]","therapeutic effect on CIA (clinical score, paw thickness)",[1]; 2.5 mg/kg i.p. daily until day 10,no effect at all
same,"therapeutic effect on CIA (clinical score, paw thickness)",[1]; 10 mg/kg i.p. daily until day 10,slight therapeutic effect
same,IFNγ synthesis,IFNγ; high concentrations (5-24 μg/ml),completely blocked IFNγ synthesis
same,IFNγ production,IFNγ; low concentrations,increase IFNγ production
same,mortality of mice sublethally injected with Legionella,Legionella,not affected
same,IL-1 production,IL-1,decreased
same,cell mediated cytotoxicity,[2]; above approximately 1 μg/ml CBD,decrease in cytotoxicity
same,cell mediated cytotoxicity,[2]; low concentrations of CBD,increase cytotoxicity
same,nitric oxide (NO) production,nitric oxide (NO),inhibited
same,"% INHIBITION of NO, 24 h",[3]; [6],14%
same,"NO, 24 h",[3]; [6],12 nM
same,"NO, 48 h","[3]; LPS 1 μg/ml + IFNγ 10 U/ml, CBD 2 (μg/ml)",25.4 nM
same,"% INHIBITION of NO, 24 h",[3]; [7],51%
same,"NO, 24 h",[3]; [7],6.9 nM
same,"NO, 48 h",[3]; [7],21.3 nM
same,"% INHIBITION of NO, 24 h",[3]; [8],61%
same,"NO, 24 h",[3]; [8],5.5 nM
same,"NO, 48 h",[3]; [8],18.1 nM
same,"% INHIBITION of NO, 24 h",[3]; [9],99%
same,"NO, 24 h",[3]; [9],0.2 nM
same,"% INHIBITION of NO, 48 h",[3]; [9],85%
same,"NO, 48 h",[3]; [9],3.1 nM
same,"% INHIBITION of NO, 24 h","[3]; LPS 1 μg/ml, CBD 2 (μg/ml)",32%
same,"NO, 24 h","[3]; LPS 1 μg/ml, CBD 2 (μg/ml)",3.7 nM
same,"% INHIBITION of NO, 48 h","[3]; LPS 1 μg/ml, CBD 2 (μg/ml)",9%
same,"NO, 48 h","[3]; LPS 1 μg/ml, CBD 2 (μg/ml)",6.7 nM
same,"% INHIBITION of NO, 24 h","[3]; LPS 1 μg/ml, CBD 4 (μg/ml)",90%
same,"NO, 24 h","[3]; LPS 1 μg/ml, CBD 4 (μg/ml)",0.5 nM
same,"% INHIBITION of NO, 48 h","[3]; LPS 1 μg/ml, CBD 4 (μg/ml)",37%
same,"NO, 48 h","[3]; LPS 1 μg/ml, CBD 4 (μg/ml)",4.6 nM
same,"% INHIBITION of NO, 24 h","[3]; LPS 1 μg/ml, CBD 6 (μg/ml)",99%
same,"NO, 24 h","[3]; LPS 1 μg/ml, CBD 6 (μg/ml)",0.1 nM
same,"% INHIBITION of NO, 48 h","[3]; LPS 1 μg/ml, CBD 6 (μg/ml)",71%
same,"NO, 48 h","[3]; LPS 1 μg/ml, CBD 6 (μg/ml)",2.1 nM
same,"% INHIBITION of NO, 24 h","[3]; LPS 1 μg/ml, CBD 8 (μg/ml)",99%
same,"NO, 24 h","[3]; LPS 1 μg/ml, CBD 8 (μg/ml)",0.1 nM
same,"% INHIBITION of NO, 48 h","[3]; LPS 1 μg/ml, CBD 8 (μg/ml)",95%
same,"NO, 48 h","[3]; LPS 1 μg/ml, CBD 8 (μg/ml)",0.4 nM
same,effect on nitric oxide production (in words),[3]; higher concentrations of CBD,inhibit nitric oxide production
same,effect on nitric oxide production (in words),[3]; low concentrations of CBD,activate nitric oxide production
same,O.D. (cytotoxicity assay for TNF),TNFα release; CBD 1 μg/ml,0.190 ± 0.003
same,TNF,TNFα release; CBD 1 μg/ml,>1000 pg/mL
same,O.D. (cytotoxicity assay for TNF),TNFα release; CBD 2.5 μg/ml,0.193 ± 0.004
same,TNF,TNFα release; CBD 2.5 μg/ml,>1000 pg/mL
same,O.D. (cytotoxicity assay for TNF),TNFα release; CBD 5 μg/ml,0.422 ± 0.251
same,TNF,TNFα release; CBD 5 μg/ml,100 pg/mL
same,O.D. (cytotoxicity assay for TNF),TNFα release; CBD 10 μg/ml,0.922 ± 0.103
same,TNF,TNFα release; CBD 10 μg/ml,2 pg/mL
same,TNF,TNFα release; CBD 20 μg/ml,<0.01 pg/mL
same,O.D. (cytotoxicity assay for TNF),TNFα release; CBD 50 μg/ml,1.163 ± 0.119
same,TNF,TNFα release; CBD 50 μg/ml,<0.01 pg/mL
same,spontaneous TNF release (in words),TNFα release; CBD added to in vitro cultures,dose-dependent suppression of TNF release
same,suppression of arthritis (in words),[4]; 25 mg/kg daily oral gavage,significantly better than the control group; also recorded: optimal dose
same,suppression of arthritis (in words),[4]; daily oral gavage after onset of arthritis,adequate suppression of the arthritis
same,cell viability at the end of the experiment,[5]; CBD 6 μg/ml,All cells were viable
same,cells available (viable),"[5]; after 1-2 hours of CBD treatment, 6 μg/ml",about 100%

# — US6410588B1, “Use of cannabinoids as anti-inflammatory agents” (priority 1998, dated 2002)
